The target in assay [1] is T1, pyruvate kinase (Oryctolagus cuniculus, UniProt P11974).
T1 construct: Pyruvate kinase from rabbit muscle (Sigma Catalog number P9136); purchased Sigma P9136; host or cells: rabbit muscle
In words: ADP to ATP conversion by pyruvate kinase (ADP detection assay). Format: biochemical, rabbit. The protocol:
Pyruvate kinase from rabbit muscle (Sigma Catalog number P9136), myokinase from chicken muscle (Sigma Catalog number M5520), myokinase from rabbit muscle (Sigma Catalog number M3003), creatine phosphokinase from bovine heart (Sigma Catalog number C7886), creatine phosphokinase from rabbit brain (Sigma Catalog number C6638), and creatine phosphokinase from rabbit muscle (Sigma Catalog number C3755) were obtained from Sigma.
80 μL of Reagent 2 (800 μM phosphoenolpyruvate and 800 mU pyruvate kinase in 80 μL Kinase-Glo® Max (Promega Corp.)) were added simultaneously to the kinase or ATPase reaction and incubated for 30-60 minutes at room temperature. The data were collected using a plate reading luminometer (GloMax® 96 Microplate Luminometer).
When the assay was performed in 3 steps, the following modification was introduced. After the ATP depletion step, 20 μL of pyruvate kinase (PK) reagent (40 mM Tris pH 7.0, 335 mM KCl, 500 μM calmidazolium, 500 μM phosphoenolpyruvate, 15 mM EDTA, 0.3 mg/mL BSA and 300-600 mU pyruvate kinase) was added, the reaction incubated for 5-10 minutes, and 100 μL Kinase-Glo® Max (Promega Corp.) was added to detect the ATP produced. After a 10 minute incubation, the plate was read on a plate reading luminometer (GloMax 96 Microplate Luminometer; Promega Corp.).

Assay [2] concerns adenylate cyclase (AC). Briefly: Adenylate cyclase assay and inhibition. Format: biochemical. Conditions: for use as inhibitors of adenylate cyclase: calmodulin antagonists, when converting ADP to ATP, FIG. 5. As for the experimental part:
Activity of various adenylyl cyclases (ACs) was measured at 30° C. for 30 minutes in the presence of 60 mM Tris pH 7.5, 10 mM MgCl2, 40 nM calmodulin and variable ATP concentrations. Except for those experiments related to AC titration, 100 ng of the AC was used. When used, the calmodulin antagonists were prepared according to the manufacturer's recommendation and were added directly to the AC reaction when direct inhibition was assessed or to the reaction converting ADP to ATP to assess AC inhibition during ATP formation.

The values that follow come from patent US8802411B2, “ADP detection based luminescent phosphotransferase or ATP hydrolase assay” (Promega Corporation, priority 2008, dated 2014).

T1 sequence (P11974 whole entry): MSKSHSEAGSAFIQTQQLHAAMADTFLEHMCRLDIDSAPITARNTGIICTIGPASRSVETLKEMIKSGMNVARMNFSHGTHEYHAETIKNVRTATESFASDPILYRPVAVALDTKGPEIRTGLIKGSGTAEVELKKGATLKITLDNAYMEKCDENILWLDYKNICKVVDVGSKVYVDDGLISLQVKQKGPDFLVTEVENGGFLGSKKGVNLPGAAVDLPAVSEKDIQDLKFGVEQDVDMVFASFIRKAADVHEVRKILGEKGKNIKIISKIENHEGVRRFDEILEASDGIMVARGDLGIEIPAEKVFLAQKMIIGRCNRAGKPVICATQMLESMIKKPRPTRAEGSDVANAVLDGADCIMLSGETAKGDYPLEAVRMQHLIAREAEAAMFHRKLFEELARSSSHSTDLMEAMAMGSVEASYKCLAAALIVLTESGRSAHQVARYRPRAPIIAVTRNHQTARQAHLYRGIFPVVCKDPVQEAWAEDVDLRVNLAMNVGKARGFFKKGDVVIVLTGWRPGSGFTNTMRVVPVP

In the case of `Clc1ccc(C(c2ccc(Cl)cc2)n2cc[n+](CC(OCc3ccc(Cl)cc3Cl)c3ccc(Cl)cc3Cl)c2)cc1` (centres unmarked) [calmidazolium], the “interference with pyruvate kinase conversion of ADP to ATP” value in assay [1] (even at high calmidozolium concentrations, FIG. 6) is recorded as “without any significant interference”. For the same compound, in assay [2] (FIG. 6), the “inhibition of AC” value is on record as “inhibited”. Moreover, the “use as inhibitors of adenylate cyclase” value in assay [2] is “may be used as inhibitors of adenylate cyclase”.

`CN[C@@H]1C[C@H]2O[C@@](C)([C@@H]1OC)n1c3ccccc3c3c4c(c5c6ccccc6n2c5c31)C(=O)NC4` [staurosporine]: the “interference with the pyruvate kinase reaction” value in assay [1] (inhibitor used to stop or tested in PKA kinase reaction, FIG. 13) is listed as “did not interfere significantly”.

`CN1CCN(CCCN2c3ccccc3Sc3ccc(C(F)(F)F)cc32)CC1` [trifluoroperazine]: the “use as inhibitors of adenylate cyclase” value in assay [2] is reported as “may be used as inhibitors of adenylate cyclase”.
